Data published in patent US10149472B2, “Chitin oligomers for use in promoting non-leguminous plant growth and development” (Wisconsin Alumni Research Foundation, priority 2015, dated 2018).

Columns and labels:
[1] = tested on: rice atrichoblasts on lateral roots; assay: Calcium spiking (YC3.6 imaging) in rice atrichoblasts on lateral roots; format: cell-based, Oryza sativa cv Nipponbare; details: for calcium oscillations: FIG. 1; for calcium oscillations, CO4 compared with CO8: 10^−8M and 10^−5 M, FIG. 2
Experimental: (§1) Mycorrhizal induced calcium responses were measured as described previously (14). Transgenic Oryza sativa Nipponbare lines carrying Yellow Cameleon 3.6 (YC3.6) FRET-based calcium sensor was used to detect calcium spiking. YC3.6 was imaged on a Nikon Eclipse Ti inverted microscope (Nikon, Japan) equipped with an OptoLED Illuminator (model OptoLED, Cairn Research Ltd, UK). YC3.6 was excited at a wavelength of 455 nm using a royal blue LED and was captured with a charge-coupled device (CCD) camera (model RETIGA-SRV, Qimaging, Canada). Emitted fluorescence was separated by an image splitter with a dichroic mirror (model Optosplit II, Cairn Research Ltd, UK) and then passed through a fluorescence filter set. Images were collected every 5 seconds with 1-second exposure and analyzed using MetaFluor (Molecular Devices, Sunnyvale, Calif., USA).
For Bayesian Spectrum Analysis we computed the most probable periods in the time series following published procedures (15). Ten traces per treatment were analyzed. The joint distributions over the period were used to characterize each group. The plots show binned data to summarize the key periods. These ten traces per treatment were also analyzed for interspike intervals. The point of maximum height for each spike was computed after detrending of the time series using a moving average algorithm. The distances between these maxima gave rise to an interspike distribution. We used the non-parametric Mann-Whitney U-test, also known as the Mann-Whitney-Wilcoxon test (16, 17) to test for significant differences between the distributions.
Three traces per treatment, with approximately 80 spikes altogether, were analyzed for calcium spike characteristics. […] The traces were detrended using a moving average algorithm (18). We then characterized the spikes by the time required for each upward and downward phase. This was computed by the number of data points it took from the maximum spike height to the baseline fluctuation of the trace. The plots show the mean value of the upward and downward phases for each treatment, and the associated standard deviations are indicated by the error bars.
Calcium responses were assessed using a stably transformed line of Oryza sativa cv Nipponbare carrying YC3.6. […] To test an array of different LCO structures, we analyzed calcium spiking in response to Nod factor isolations from the broad host range rhizobial species, Rhizobium sp. NGR234, as well as Rhizobium tropici, in addition to the Myc-LCOs.

[2] = tested on: rice trichoblasts (root hair cells); assay: Calcium spiking (YC3.6 imaging) in rice trichoblasts (root hair cells); format: cell-based, Oryza sativa cv Nipponbare; details: 10^−5 M, FIG. 5, FIG. 6
Experimental: as §1
Both LCOs and COs are Required to Induce Calcium Spiking in Trichoblasts. Rhizobia colonize legumes by root hair cells (trichoblasts), whereas AM fungi colonize roots via non-root hair epidermal cells (atrichoblasts). Thus, these different root epidermal cell types may respond differently to COs and LCOs. To test this, we directly compared trichoblast and atrichoblast responses using high concentrations of CO4 in rice. Calcium oscillations observed in rice following treatments of CO4 were restricted to atrichoblasts, with no responses in trichoblasts even with CO4 treatments of 10^−5 M (FIG. 5). This preferential nature of rice atrichoblasts to respond to the AM signals is consistent with a preference for AM fungi to colonize the root via atrichoblasts (26). It is possible that either AM fungi produce signalling molecules other than S-LCO, NS-LCO and CO4 that induce calcium oscillations in rice trichoblasts, or that the mix of signalling molecules is important. To test this, we assessed induction of calcium oscillations by an equimolar mix of 10^−5 M S-LCO, NS-LCO, and CO4.

[3] = tested on: Hard Red Spring Wheat (HRSW); assay: Seed treatment of hard red spring wheat in vitro (plates); format: in vivo; details: seed coating 125 μl of 10^−6 M; for Number of Lateral Roots / Number of Primary Roots: 4-5 days after transfer
Experimental: Hard red spring wheat seeds were surface sterilized using ethanol and bleach. The sterilized seeds were then divided among 4 treatment groups of 5 grams each into 50 ml falcon tubes. To the control tube, 0.5% ethanol in water was added. To the CO4 tube, 125 μl of 10^−6 M CO4 solution was added. To the CO8 tube, 125 μl of 10^−6 M CO8 solution was added. To the “Consensus” tube, 125 μl of 10^−6 M solution of chitosan (CONSENSUS® chitosan; Loveland Products, Inc., Loveland, Colo.) was added. Each tube was then shaken to coat the seeds. The coated seeds were then placed on sterile Petri dishes in a hood and were left to dry overnight in the hood.
The seeds were then germinated on damp germination paper in sterile Petri dishes for 4 days. The resulting seedlings were transferred to Fahräeus medium plates containing damp germination paper, and the plates were wrapped in Parafilm®. Fahräeus medium contains 0.5 m M MgSO4, 0.7 mM KH2PO4, 0.4 mM Na2HPO4, 0.02 mM Fe-EDTA, 0.01 mM MnSO4, 0.007 mM CuSO4, 0.006 mM ZnSO4, 0.016 mM H3BO3, 0.001 mM Na2MoO4, and 15 g/L Agar for plant tissue, adjusted to pH 6.5 before autoclaving. The plants were grown at room temperature under continuous light for 4-5 days. The number of primary roots (PR), lateral roots (LR), root system length (RSL) and dry weight (DW) was then measured for all plants.

[4] = tested on: pea (the legume Pisum sativum); assay: Seed treatment of pea in pots; format: in vivo; details: seed coating 125 μl of 10^−6 M, 2 weeks after planting, * significant at P < 0.05
Experimental: Five grams of pea seeds (the legume Pisum sativum) were added to three separate 50 ml tubes. A water solution containing 0.5% ethanol was added to the control tube, 125 μl of 10^−6M CO4 solution was added to the CO4 tube, and 125 μl of 10^−6 M CO8 solution was added to the CO8 tube. Each tube was then shaken to coat the seeds. Seeds were potted immediately following treatment into moistened SUNGRO® potting mix in 4×6×6 cm pots. Plants were watered by pouring water into the tray containing the pots up to about ¾ inch high. After sowing the seeds, the pots were randomly distributed (16 pots per treatment) throughout the tray and placed underneath continuous light at room temperature for 1 week. Liquid Fahräeus medium (plant fertilizer solution; see above) was applied every 2 days or when necessary. After a week, the pots were placed underneath 10 h light and 14 h dark cycle at room temperature for 1 week. After 1 week underneath 10 h light and 14 h dark cycle (2 weeks after planting), the plants were carefully removed from the pots, and as much soil as possible was shaken off. The remaining soil was removed by submerging the root system into a beaker of water. The number of primary roots (PR), lateral roots (LR), root system length (RSL) and dry weight (DW) were then measured for all plants.

Which calcium oscillations ([1]; 10^−5M, rice large lateral roots, epidermal cells (atrichoblasts)) does the source give for `CC(=O)N[C@H]1[C@H](O[C@H]2[C@H](O)[C@@H](NC(C)=O)C(O)O[C@@H]2CO)O[C@H](CO)[C@@H](O[C@@H]2O[C@H](CO)[C@@H](O[C@@H]3O[C@H](CO)[C@@H](O)[C@H](O)[C@H]3NC(C)=O)[C@H](O)[C@H]2NC(C)=O)[C@@H]1O` (some centres unmarked) [CO4, tetra-N-acetylchitotetraose] here?
Its calcium oscillations is “strong calcium oscillations”.

What about the “calcium oscillations, CO4 compared with CO8” value [1] of the same compound?
The value was “respond equally well”.

And the calcium oscillations ([1]; 10^−8M, rice epidermal cells, robustness and number of responsive cells reduced)?
The calcium oscillations was “still showed calcium oscillations”.

What about the “calcium spiking in trichoblasts” value [2] of the same compound?
Its value is “no responses”.

What about the “Dry Weight” value [3] of the same compound?
The value was 0.0206 g.

And the “Number of Lateral Roots” value [3]?
The value was 3.73.

And the “Number of Primary Roots” value [3]?
The value was 5.20.

For `CC(=O)N[C@H]1[C@H](O[C@H]2[C@H](O)[C@@H](NC(C)=O)[C@H](O[C@H]3[C@H](O)[C@@H](NC(C)=O)[C@H](O[C@H]4[C@H](O)[C@@H](NC(C)=O)C(O)O[C@@H]4CO)O[C@@H]3CO)O[C@@H]2CO)O[C@H](CO)[C@@H](O[C@@H]2O[C@H](CO)[C@@H](O[C@@H]3O[C@H](CO)[C@@H](O[C@@H]4O[C@H](CO)[C@@H](O[C@@H]5O[C@H](CO)[C@@H](O)[C@H](O)[C@H]5NC(C)=O)[C@H](O)[C@H]4NC(C)=O)[C@H](O)[C@H]3NC(C)=O)[C@H](O)[C@H]2NC(C)=O)[C@@H]1O` (some centres unmarked) [CO8, octa-N-acetyl-chitooctaose], which “calcium oscillations, CO4 compared with CO8” value [1] is on record?
The value was “respond equally well”.

And the “Dry Weight” value [3]?
The value was 0.0191 g.

And the “Number of Lateral Roots” value [3]?
The value was 3.00.

And the “Number of Primary Roots” value [3]?
The value was 5.20.

What about the “Root System Length (cm)” value ([3]; * significant at P < 0.05) of the same compound?
Its value is 11.51 cm.

And the “Average Lateral Roots” value [4]?
Its value is “significantly decreased”.

What about the “Average Primary Roots” value [4] of the same compound?
The value was “significantly decreased”.
